In US20260102418A1, “An anti-influenza virus derivative and uses thereof” (Shijiazhuang Discovery Medicine Technology Co., Ltd., priority 2022, published 2026):
“Also recorded” adds a separate entry of the source. Read-outs that look alike come from different tables or passages of the source.

What was measured:
[1] = in vitro; details: dog
[2] = system: A/WSN/33 (H1N1); assay: Antiviral CPE assay in MDCK, other influenza strains; assay type: cell-based, influenza A virus (IAV); details: Influenza A virus, CPE method
[3] = system: A/PR/8/34 (H1N1) (PR8); assay: as above; assay type: cell-based, influenza A virus (IAV); details: Influenza A virus, CPE method
[4] = system: influenza virus (A/HPB/359/95 (H3N2)); assay: organism not typed; details: MDCK, read-out: Anti-IAV EC50
[5] = system: B/Massachusetts/2/2012 (BY-3); assay: Antiviral CPE assay in MDCK, other influenza strains; assay type: cell-based; details: Influenza B virus
[6] = system: B/Beijing-Haidian/1386/2013 (BV); assay: as above; assay type: cell-based; details: Influenza B virus, CPE method
[7] = system: A/PR/8/34 (H1N1) virus; assay: Virus titer test and histopathological examination in influenza virus mouse model; assay type: in vivo, C57BL/6J mice; details: for lung tissue pathology examination: left lung 5 days after infection
Protocol: Fifteen C57BL/6J mice (female, 8 weeks, 18-20 g) were divided into 5 groups (group A, group B, group C, group D and group E), 3 in each group. After intranasal inoculation with a semi-lethal dose of A/PR/8/34 (H1N1) virus, group A/group B/group C were respectively given intragastric administration of test drugs (group A: DS1494; group B: DS1833; group C: M42, all suspended in 1% methylcellulose solution, and the dosage of each group was 2 mg/kg), group D was given oral gavage with the same volume of 1% methylcellulose solution, and group E was given intraperitoneal injection of test drug DS1835 (the dosage was 1.4 mg/kg, dissolved in physiological saline), and each group was given drug administration once a day. Lung tissue samples were collected 5 days after infection, the left lung was examined for pathology, and the right lung was homogenized for TCID50 determination.

[8] = Cytotoxicity test in MDCK cells (CPE method, 72 hours); details: dog
[9] = system: MDCK cells; assay: as above; details: read-out: TC50 in MDCK; MDCK cells, 72 hours, CPE method
[10] = system: influenza virus (A/HPB/359/95 (H3N2))
[11] = PR8 = A/Puerto Rico/8/1934(H1N1), MDCK
[12] = HD = B/Beijing-Haidian/1386/2013 (BV)
[13] = 2 mg/kg intragastric once a day

Molecule	CC50 [1] [nM]	EC50 [4] [nM]	also measured
[2H]C([2H])([2H])OC(=O)OCOc1c2n(ccc1=O)N([C@@H]1c3ccccc3[Se]Cc3c1ccc(F)c3F)[C@@H]1COC3(CC3)CN1C2=O [DS1833]	> 20000	0.11 ± 0.02	EC50 [2]: 0.00102 ± 0.00027 µM; EC50 [3, 11]: 0.00089 ± 0.00022 µM; EC50 ([5]; MDCK): 0.00277 ± 0.00075 µM; EC50 [6, 12]: 0.00338 ± 0.00067 µM; lung tissue pathology examination [7, 13]: clear bronchial structure, and the epithelial cells were arranged neatly with a small amount of inflammatory cell infiltration; lung tissue virus titers compared with M42 at the same dose ([7]; 2 mg/kg intragastric once a day, right lung TCID50 5 days after infection): lower
C[C@@]1(N2[C@@H]3COC4(CC4)CN3C(=O)c3c(OP(=O)(O)O)c(=O)ccn32)c2ccccc2[Se]Cc2c1ccc(F)c2F [DS14912]	> 20000	0.17 ± 0.01	–
[2H][C@@]1(N2[C@@H]3COC4(CC4)CN3C(=O)c3c(OCOC(=O)OC)c(=O)ccn32)c2ccccc2[Se]Cc2c1ccc(F)c2F [DS1495]	> 20000	0.28 ± 0.03	–
COC(=O)OCOc1c2n(ccc1=O)N([C@]1(C)c3ccccc3[Se]Cc3c1ccc(F)c3F)[C@@H]1COC3(CC3)CN1C2=O [DS1496]	> 20000	0.43 ± 0.02	–
O=C1c2c(O)c(=O)ccn2N([C@@H]2c3ccccc3SCc3c2ccc(F)c3F)[C@@H]2COC3(CC3)CN12 [Compound M41, reference compound]	–	0.63 ± 0.03	CC50 at 72 h ([8]; MDCK cells): > 20000 nM
[2H][C@@]1(N2[C@@H]3COC4(CC4)CN3C(=O)c3c(OCOP(=O)(O)O)c(=O)ccn32)c2ccccc2[Se]Cc2c1ccc(F)c2F [DS1498]	–	0.31 ± 0.02	CC50 at 72 h [8]: > 20000 nM
[2H]C([2H])([2H])OC(=O)OCOc1c2n(ccc1=O)N([C@@H]1c3ccccc3SCc3c1ccc(F)c3F)[C@@H]1COC3(CC3)CN1C2=O [DS1837]	–	0.65 ± 0.03	CC50 at 72 h [1]: > 20000 nM; EC50 [2]: 0.00136 ± 0.00022 µM; EC50 [3, 11]: 0.00126 ± 0.00047 µM; EC50 ([5]; MDCK): 0.00588 ± 0.00091 µM; EC50 [6, 12]: 0.00565 ± 0.00073 µM
Baricitinib	–	–	CC50 [9]: > 20000 nM
O=C1c2c(O)c(=O)ccn2N([C@@H]2c3ccccc3[Se]Cc3c2ccc(F)c3F)[C@@H]2COC3(CC3)CN12 [DS1835]	–	–	lung tissue pathology examination ([7]; 1.4 mg/kg intraperitoneal injection once a day): clear bronchial structure, and the epithelial cells had complete morphology and neat arrangement; lung tissue virus titer ([7]; 1.4 mg/kg intraperitoneal injection once a day, right lung TCID50 5 days after infection): lowest lung tissue virus titer
COC(=O)OCOc1c2n(ccc1=O)N([C@@H]1c3ccccc3SCc3c1ccc(F)c3F)[C@@H]1COC3(CC3)CN1C2=O [Compound M42, reference compound]	> 20000	0.76 ± 0.04	EC50 [2]: 0.00228 ± 0.00042 µM; EC50 [3, 11]: 0.00193 ± 0.00055 µM; EC50 ([5]; MDCK): 0.00724 ± 0.00136 µM; EC50 [6, 12]: 0.00621 ± 0.00109 µM; lung tissue pathology examination [7, 13]: clear bronchial structure, and the epithelial cells were arranged neatly with a small amount of inflammatory cell infiltration; also recorded: a small amount of epithelial cell necrosis was observed
[2H]C([2H])([2H])OC(=O)OCOc1c2n(ccc1=O)N([C@]1([2H])c3ccccc3SCc3c1ccc(F)c3F)[C@@H]1COC3(CC3)CN1C2=O [DS1838]	–	0.52 ± 0.04	CC50 at 72 h [1]: > 20000 nM
[2H]C([2H])([2H])OC(=O)OCOc1c2n(ccc1=O)N([C@]1([2H])c3ccccc3[Se]Cc3c1ccc(F)c3F)[C@@H]1COC3(CC3)CN1C2=O [DS1834]	> 20000	0.1 ± 0.01	–
NC(=O)c1ncn([C@@H]2O[C@H](CO)[C@@H](O)[C@H]2O)n1 [Ribavirin, reference compound]	–	–	EC50 ([2]; Ribavirin in μM): 27.2 ± 2.79 µM; EC50 ([3]; PR8, MDCK, Ribavirin in μM): 29.6 ± 3.11 µM; EC50 ([5]; BY-3, MDCK, CPE method, Ribavirin in μM, read-out: EC50): 33.1 ± 3.29 µM; EC50 ([6]; HD, Ribavirin in μM): 34.5 ± 4.85 µM
C[C@@]1(N2[C@@H]3COC4(CC4)CN3C(=O)c3c(OCOP(=O)(O)O)c(=O)ccn32)c2ccccc2[Se]Cc2c1ccc(F)c2F [DS1499]	> 20000	0.29 ± 0.02	–
O=C1c2c(OP(=O)(O)O)c(=O)ccn2N([C@@H]2c3ccccc3[Se]Cc3c2ccc(F)c3F)[C@@H]2COC3(CC3)CN12 [DS14910]	> 20000	0.21 ± 0.02	–
O=C1c2c(OCOP3(=O)OCCCO3)c(=O)ccn2N([C@@H]2c3ccccc3[Se]Cc3c2ccc(F)c3F)[C@@H]2COC3(CC3)CN12 [DS15812]	> 20000	0.25 ± 0.03	–
[2H][C@@]1(N2[C@@H]3COC4(CC4)CN3C(=O)c3c(O)c(=O)ccn32)c2ccccc2[Se]Cc2c1ccc(F)c2F [DS1492]	> 20000	0.14 ± 0.03	–
O=C1c2c(O)c(=O)ccn2N([C@@H]2c3ccccc3[Se]Cc3c2ccc(F)c3F)[C@@H]2COC3(CC3)CN12 [DS1491]	> 20000	0.2 ± 0.01	therapeutic index (TC50/EC50) [10]: higher therapeutic index
O=C1c2c(OCOP(=O)(O)O)c(=O)ccn2N([C@@H]2c3ccccc3[Se]Cc3c2ccc(F)c3F)[C@@H]2COC3(CC3)CN12 [DS14915]	–	–	EC50 [2]: 0.00113 ± 0.00031 µM; EC50 [3, 11]: 0.00097 ± 0.00036 µM; EC50 ([5]; MDCK): 0.00218 ± 0.00056 µM; EC50 [6, 12]: 0.00247 ± 0.00048 µM
C[C@@]1(N2[C@@H]3COC4(CC4)CN3C(=O)c3c(O)c(=O)ccn32)c2ccccc2[Se]Cc2c1ccc(F)c2F [DS1493]	> 20000	0.1 ± 0.01	therapeutic index (TC50/EC50) [10]: higher therapeutic index
[2H][C@@]1(N2[C@@H]3COC4(CC4)CN3C(=O)c3c(OP(=O)(O)O)c(=O)ccn32)c2ccccc2[Se]Cc2c1ccc(F)c2F [DS14911]	> 20000	0.19 ± 0.03	–
COC(=O)OCOc1c2n(ccc1=O)N([C@@H]1c3ccccc3[Se]Cc3c1ccc(F)c3F)[C@@H]1COCCN1C2=O [Compound M43, reference compound]	–	–	EC50 ([5]; MDCK): 0.0113 ± 0.00253 µM; EC50 [6, 12]: 0.00839 ± 0.00175 µM
O=C1c2c(OCOP(=O)(O)O)c(=O)ccn2N([C@@H]2c3ccccc3[Se]Cc3c2ccc(F)c3F)[C@@H]2COC3(CC3)CN12 [DS1497]	> 20000	0.37 ± 0.04	–
CCOP(=O)(OCC)OCOc1c2n(ccc1=O)N([C@@H]1c3ccccc3[Se]Cc3c1ccc(F)c3F)[C@@H]1COC3(CC3)CN1C2=O [DS1831]	> 20000	0.19 ± 0.02	–
O=C1c2c(OCOP(=O)(OCc3ccccc3)OCc3ccccc3)c(=O)ccn2N([C@@H]2c3ccccc3[Se]Cc3c2ccc(F)c3F)[C@@H]2COC3(CC3)CN12 [DS1832]	> 20000	0.21 ± 0.03	–
